Values after ≈ are worked out from the molar mass of the structure shown. Where two headings read alike, the source gives them in different places.
Experiments:
Format in all cases: cell-based
[1] = system: COLO 205 (human colon carcinoma); assay: MTT assay, growth inhibition of COLO 205 cells; details: 48 hours incubation, mean ± SD of three replicates; for IC50: Homo sapiens, COLO 205, 48 h, read-out: IC50 (concentration required for 50% growth inhibition of cancer cells), COLO 205
Procedure: (§1) The cell lines A549 (human lung cancer), HT-29 (human colon carcinoma), and COLO 205 (human colon carcinoma) were obtained from the American Type Culture Collection (ATCC) (Rockville, Md.). These cell lines were maintained in DMEM containing 10% heat-inactivated fetal bovine serum, 100 units/mL of penicillin and 100 μg/mL of streptomycin, and were kept at 37° C. in a 5% CO2 incubator.
(§2) MTT assay was performed as described by Hansen et al. (Hansen et al., J. Immunol. Methods 119, 203-210, 1989). A549 (1.5×10^3 cells/well), HT-29 (2×10^3 cells/well), and COLO 205 (3×10^3 cells/well) were seeded in 96-well plates and grown overnight. Cells were then incubated in 10% FBS medium containing different amounts of adlay bran subfractions for 48 hours. At the end of incubation, media were replaced with 100 μL of reagent (MTT, 1 mg/mL) and incubated in a 5% CO2 incubator at 37° C. for another 2 h. The medium was then discarded and 100 μL of DMSO was added to each well. The absorbance was measured at 570 nm by scanning with a micro-plate reader (Molecular Devices, Calif.). Each sample was analyzed six times, and the values were averaged. For the determination of IC50 (the concentration of each substance required to inhibit cell proliferation by 50%), each sample was measured at five different concentrations by the MTT test. […] The IC50 values of each sample were collected from three replicates, and then mean±standard deviation values were obtained for the results of the IC50 assay.

A549 (human lung cancer) = assay: MTT assay, growth inhibition of A549 cells; details: for IC50: Homo sapiens
Procedure: as §1, §2

[2] = system: HT-29 (human colon carcinoma); assay: MTT assay, growth inhibition of HT-29 cells; details: 48 hours incubation, mean ± SD of three replicates; for IC50: Homo sapiens, HT-29, 48 h, read-out: IC50 (concentration required for 50% growth inhibition of cancer cells), HT-29
Procedure: as §1, §2

[3] = A549, 48 h, A549 cells, 48 hours incubation, MTT, mean ± SD of three replicates, read-out: IC50 (concentration required for 50% growth inhibition of cancer cells), A549
[4] = A549, summary range over all five compounds and all three cell lines A549, HT-29, COLO 205, read-out: IC50 values against A549, HT-29 and COLO 205 cells (overall range)

| SMILES | IC50 [1] | IC50 (A549 (human lung cancer); [3]) | IC50 (A549 (human lung cancer); [4]) | IC50 [2] | IC50 (concentration required for 50% growth inhibition of cancer cells), COLO 205 [1] | IC50 (concentration required for 50% growth inhibition of cancer cells), A549 (A549 (human lung cancer); A549 cells, 48 hours incubation, MTT, mean ± SD of three replicates) | IC50 (concentration required for 50% growth inhibition of cancer cells), HT-29 [2] |
| --- | --- | --- | --- | --- | --- | --- | --- |
| O=C1C[C@]2(CO1)C(=O)Nc1ccccc12 [Compound 1, coixspirolactam A] | 35.9 ± 4.65 µg/mL (≈ 177 µM) | 37.1 ± 1.93 µg/mL (≈ 183 µM) | 28.6 to 72.6 µg/mL (≈ 141 to 357 µM) | 34.4 ± 3.53 µg/mL (≈ 169 µM) | – | – | – |
| CC1OC(=O)C[C@@]12C(=O)Nc1ccccc12 (stereo partly shown) [Compound 2, coixspirolactam B] | 41.3 ± 3.52 µg/mL (≈ 190 µM) | 28.6 ± 2.04 µg/mL (≈ 132 µM) | 28.6 to 72.6 µg/mL (≈ 132 to 334 µM) | 32.7 ± 2.29 µg/mL (≈ 151 µM) | – | – | – |
| CC1OC(=O)C[C@@]12C(=O)Nc1ccccc12 (stereo partly shown) [Compound 3, coixspirolactam C] | – | – | – | – | 48.12 ± 4.15 µg/mL | 31.75 ± 2.58 µg/mL | 37.55 ± 3.08 µg/mL |

More lines, now with the values ahead:

| IC50 [1] | IC50 (A549 (human lung cancer); [3]) | IC50 (A549 (human lung cancer); [4]) | IC50 [2] | IC50 (concentration required for 50% growth inhibition of cancer cells), COLO 205 [1] | IC50 (concentration required for 50% growth inhibition of cancer cells), A549 (A549 (human lung cancer); A549 cells, 48 hours incubation, MTT, mean ± SD of three replicates) | IC50 (concentration required for 50% growth inhibition of cancer cells), HT-29 [2] | SMILES |
| --- | --- | --- | --- | --- | --- | --- | --- |
| 72.6 ± 5.31 µg/mL (≈ 354 µM) | 65 ± 3.32 µg/mL (≈ 317 µM) | 28.6 to 72.6 µg/mL (≈ 139 to 354 µM) | 52.6 ± 2.64 µg/mL (≈ 256 µM) | – | – | – | COC(=O)[C@H]1Cc2ccccc2NC1=O [Compound 4, coixlactam] |
| 45.5 ± 6.42 µg/mL (≈ 206 µM) | 42.6 ± 2.31 µg/mL (≈ 193 µM) | 28.6 to 72.6 µg/mL (≈ 129 to 328 µM) | 48.9 ± 3.83 µg/mL (≈ 221 µM) | – | – | – | COC(=O)CC1(O)C(=O)Nc2ccccc21 (stereo not shown) [Compound 5, methyl dioxindole-3-acetate] |

Source: patent US20100041900A1, “Isolation of lactam compound from adlay bran and its use on anti-proliferative cancer cells” (KUANG TA FOODS CO., LTD, priority 2008, published 2010)
